According to patent publication US8071540B2, “Virus derived antimicrobial peptides” (priority 2007, dated 2011):
Entries after “also recorded” stand apart in the source; their conditions may differ. Where no end group is shown, it is not given here.

Legend:
Pseudomonas aeruginosa [1] = test: Bacterial lysis (broth dilution) assay, MBC; format: cell-based; design: MBC, Psuedomonas aeruginosa, 0 mM NaCl / MBC, Psuedomonas aeruginosa, 150 mM NaCl: unit not given here; settings: for P. aeruginosa killing, influence of physiologic NaCl: phosphate buffer with 150 mM NaCl versus low salt; for MBC, Psuedomonas aeruginosa, 0 mM NaCl: 0 mM NaCl (10 mM phosphate buffer); for MBC, Psuedomonas aeruginosa, 0 mM NaCl / MBC, Psuedomonas aeruginosa, 150 mM NaCl: 99.9% killing; for MBC, Psuedomonas aeruginosa, 150 mM NaCl: 150 mM NaCl (physiologic)
Pseudomonas aeruginosa [2] = settings: 1×10^5 colony-forming units; cited from earlier work
[3] = tested on: Methicillin Resistant S. aureus; format: cell-based, Staphylococcus aureus; design: unit not given here; settings: 99.9% killing; for MBC, Methicillin Resistant S. aureus, 0 mM NaCl: 0 mM NaCl (10 mM phosphate buffer); for MBC, Methicillin Resistant S. aureus, 150 mM NaCl: 150 mM NaCl (physiologic)
Staphylococcus aureus [4] = test: Bacterial lysis (broth dilution) assay, MBC; format: cell-based; settings: for MBC, Staphylococcus aureus, 0 mM NaCl: 0 mM NaCl (10 mM phosphate buffer); for MBC, Staphylococcus aureus, 0 mM NaCl / MBC, Staphylococcus aureus, 150 mM NaCl: 99.9% killing; for MBC, Staphylococcus aureus, 150 mM NaCl: 150 mM NaCl (physiologic)
Source text: The assays for growth inhibition of a microbial target can be used to derive a minimum bactericidal concentration (MBC) value for the peptide, i.e., the concentration of peptide required to kill 99.9% (3-log decrease) of the microbial sample being tested. This value is well known to those in the art as representative of the effectiveness of a particular antimicrobial agent (e.g., an antibiotic) against a particular organism or group of organisms. In assays to detect the MBC of a peptide, growth inhibition of a bacterial population also can be measured with reference to the number of colony forming units (cfu) after exposure to a peptide relative to a control experiment without a peptide.
Bacterial lysis assay. Bacterial lysis assays were conducted in a manner similar to that described previously (Lehrer, R. I., M. E. Selsted, D. Szklarek, and F. J. 1983. Infect. Immun. 42: 10-4, 1983; Miller, M. A., R. F. Garry, J. M. Jaynes, and R. C. Montelaro, AIDS Res Hum Retroviruses 7:511-519, 1991). Bacterial suspensions were cultured in Luria-Bertani Broth to mid-log growth phase and washed by two cycles of centrifugation and suspension in 10 mM phosphate buffer. The Abs600 of the suspension was adjusted with 10 mM phosphate buffer such that, upon dilution, 5-10×10^5 cfu/mL would be treated in the assay. Bacteria were incubated for 1 h with two-fold dilutions of peptides (100 μM to 100 nM) in 96-well plates using 10 mM phosphate buffer, pH 7.2, as a diluent. Ten-fold dilutions of bacteria were performed to 1:1 000; a 100 μl aliquot from each condition was spread on the surface of tryptic soy agar plates (Difco, Detroit, Mich.) which were incubated overnight. Colonies of surviving bacteria (cfu, colony-forming units) were counted and compared to untreated controls to determine the amount of peptide-induced killing under each condition. Log killing is defined as the log of the ratio of cfu present before and after treatment with peptide. The minimal bactericidal concentration, MBC, is the peptide concentration at which 99.9% (three log) killing is achieved (Pearson et al., Antimicrob. Agents Chemother. 18: 699-708, 1980).
Results. Representative gram positive (S. aureus) and gram negative (P. aeruginosa) clinical isolates were used as the index bacteria to survey the peptides described herein.
A limitation of many host-derived antimicrobial peptides is their decreased activity at physiologic (150 mM) NaCl concentration. See Friedrich et al., Antimicrobial Agents and Chemotherapy 43:1542-1548. The peptides WLSA-5 (SEQ ID NO: 3) and LL37 were tested against the two index strains at physiologic NaCl. […] The activity of antimicrobial peptides described herein were compared to an expanded list of clinical bacterial isolates. These are summarized in Table 2 by comparing their MBCs in phosphate buffer alone (low salt) and phosphate buffer containing 150 mM NaCl (physiologic conditions). Inspection of this table would lead one skilled in the art to conclude that the activity of antimicrobial peptides described herein compare favorably to the host derived antimicrobial peptides as it relates to the spectrum and potency of antimicrobial activity.

[5] = tested on: diverse gram-negative and -positive bacterial isolates; settings: cited from earlier work
Staphylococcus aureus [6] = settings: 1×10^5 colony-forming units; cited from earlier work
[7] = molecular target: Ca^2+ saturated calmodulin (Homo sapiens, UniProt P0DP23); settings: host cell Ca^2+ saturated calmodulin; cited from earlier work
S. aureus [8] = test: Rabbit joint model of septic arthritis
P. aeruginosa = test: LSA-5 bound to Affigel 15 column, viable bacteria in eluant; settings: same column repeatedly exposed to bacterial suspensions
S. aureus [9] = test: Bactericidal activity in human synovial fluid
S. epidermidis = test: In vitro activity against S. epidermidis
[10] = tested on: HIV-1 (strain IIIB) virions; test: Suppression of HIV-1 infectivity, p24 antigen in PHA stimulated PBMCs; format: cell-based; settings: 1 and 0.1 μM
Experimental: In this example human peripheral blood […] (PBMCs) were obtained from healthy volunteers and maintained in culture at a concentration of 1×10^5 viable cells per mL of medium. These cells were stimulated by the addition of phytohemagglutinin (PHA). To this a standardized titer of purified HIV-1 (strain IIIB) virions was added to PBMCs to generate a p24 antigen signal of 14,000 pg/mL five days post exposure to virus.
In order to test whether the LLP peptide, LSA-5 (SEQ ID NO: 2) was able to suppress HIV-1 activity, LSA-5 at concentrations ranging between 0.1 and 100 μM were incubated with the standard virus titer determined as above for 30 min. Virions surviving peptide exposure were isolated by ultracentrifugation at 100,000×g for 60 min. Viral pellets were used to infect PHA stimulated PBMCs prepared as described above. Five days post infection the level of p24 antigen was determined and compared to a non-peptide treated control. The data was expressed as the ratio of p24 antigen associated with peptide-treated vs. non-peptide treated HIV-1 infected cells to obtain a value referred to as percent suppression.

[11] = tested on: P. aeruginosa attached to differentiated human bronchial epithelial cells; test: CF cell culture model: killing of bacteria bound to airway epithelial cells; format: cell-based, Pseudomonas aeruginosa; settings: increasing peptide concentration, co-culture, FIG. 9
[12] = tested on: differentiated primary human airway epithelial cells; test: CF cell culture model: transepithelial resistance as peptide toxicity
Burkholderia cepacia = format: cell-based; settings: standard broth dilution, FIG. 7

| Substance | MBC, Methicillin Resistant S. aureus, 0 mM NaCl [3] | MBC, Staphylococcus aureus, 0 mM NaCl (Staphylococcus aureus [4]) | MBC, Staphylococcus aureus, 150 mM NaCl (Staphylococcus aureus [4]) | MBC, Psuedomonas aeruginosa, 0 mM NaCl (Pseudomonas aeruginosa [1]) | MBC, Psuedomonas aeruginosa, 150 mM NaCl (Pseudomonas aeruginosa [1]) | MBC, Methicillin Resistant S. aureus, 150 mM NaCl [3] | other results |
| --- | --- | --- | --- | --- | --- | --- | --- |
| LL37: human cathelicidin, 37-amino acid amphiphilic a-helical cationic host derived antimicrobial peptide (LLGDFFRKSKEKIGKEFKRIVQRIKDFLRNLVPRTES; Antibacterial peptide LL-37; UniProt P49913 134-170, looked up) [reference compound] |  |  |  |  |  |  | P. aeruginosa killing, influence of physiologic NaCl (Pseudomonas aeruginosa [1]): not affected by NaCl inclusion |
| LLP1: prototypical lentiviral lytic peptide, amino acids 828-856 of the HIV-1 viral isolate HXB2R Env (SEQ ID NO: 19) (RVIEVVQGACRAIRHIPRRIRQGLERIL; Human immunodeficiency virus type 1) [reference compound] | 16000 | 8000 nM | 16000 nM | 1000 | 1000 |  | time to nearly sterilize suspension, P. aeruginosa (Pseudomonas aeruginosa [2]): ≤ 60 s; antibacterial activity compared with magainin-2 [5]: equal to, or more potent than magainin-2; time to nearly sterilize suspension, S. aureus (Staphylococcus aureus [6]): ≤ 60 s; binding affinity to calmodulin [7]: near nanomolar affinity |
| RRVVRRVRRVVRRVVRVVRRVVRR [LBU-2] |  | 1500 nM |  | 1500 | 800 |  |  |
| RRVVRRVRRVVRRVVRVVRRVVRRVRRVVRRVVRVVRRVVRR (RRVVRRVRRVVRRVVRVVRRVVRRVRRVVRRVVRVVRRVVRR; Antimicrobial peptide) [LBU-3.5] | 1500 | 1000 nM | 600 nM | 400 | 400 | 200 |  |
| RVIRVVQRACRAIRHIVRRIRQGLRRIL (RVIRVVQRACRAIRHIVRRIRQGLRRIL; Antimicrobial peptide) [SA-5] |  | 1000 nM |  | 1000 | 1000 |  |  |
| RVIRVVQRACRAIRHIVRRIRQGLRRILRVV [LSA-5, RVIRVVQRACRAIRHIVRRIRQGLRRILRVV] | 150 | 1000 nM | 1000 nM | 800 | 800 |  | bacteria (colony forming units) in joint fluid (S. aureus [8]; 50, 100 and 200 μM intraarticularly, 1 h after instillation, versus non-peptide treated joint, FIG. 11): dose-dependent decrease in colony forming units; also recorded: significantly increases bacterial killing; bacterial load in joint, comparison with 0.35% neomycin (S. aureus [8]; intraarticular at 0, 1 and 2 h, FIG. 12): nearly as effective as a standard concentration of neomycin; adverse toxicity in animal experiments (S. aureus [8]; peptide administered alone, intraarticular): no adverse toxicity was observed; bacterial load in joint (S. aureus [8]; two treatments of 150 μM at 0 and 1 h, 1 h post-treatment, versus phosphate buffer): significant decrease; passages of bacterial suspension over which the column maintained activity (P. aeruginosa): up to 6 passages; concentration at which peptide is still active in synovial fluid (S. aureus [9]; 1:4 dilution of human synovial fluid, FIG. 10): 128 µM; effect of synovial fluid on activity (S. aureus [9]; versus phosphate buffer containing physiologic NaCl): clearly impairs the activity; activity against S. epidermidis in vitro (S. epidermidis): highly active; reduction of HIV-1 infectivity [10]: drop off this inhibitory activity |
| RVVRVVRRVVRRVRRVVRRVVRVVRRVVRRVRRVVRRVVRVVRRVVRR [LBU-4] |  | 800 nM | 800 nM | 800 | 400 |  |  |
| RVVRV VRRWV RR (RVVRVVRRWVRR; Antimicrobial peptide) [WLBU-1] | 50,000 | 30,000 nM | 10,000 nM | 400 | 2500 | 50,000 |  |
| RVVRVVRRWVRRVRRVWRRVVRVVRRWVRRVRRVWRRVVRVVRRWRVV (RVVRVVRRWVRRVRRVWRRVVRVVRRWVRRVRRVWRRVVRVVRRWRVV; Antimicrobial peptide) [WLBU-4] | 1500 | 3,000 nM | 600 nM | 1500 | 400 | 200 |  |
| RWIRVVQRWCRAIRHIWRRIRQGLRRWLRVV [WLSA-5, RWIRVVQRWCRAIRHIWRRIRQGLRRWLRVV] | 150 | 1000 nM | 1000 nM | 1000 | 1000 |  | S. aureus killing, influence of physiologic NaCl (Staphylococcus aureus [4]; phosphate buffer with 150 mM NaCl versus low salt): not influenced by NaCl in the same way as LL37; also recorded: maintained its activity in low and physiologic salt conditions; P. aeruginosa killing, influence of physiologic NaCl (Pseudomonas aeruginosa [1]): not affected by NaCl inclusion; also recorded: maintained its activity in low and physiologic salt conditions; viability of bacteria bound to epithelial cells [11]: decrease in bacterial viability; change in transepithelial resistance ([12]; at a decrease in bacterial counts by two orders of magnitude): less than 50%; effect on trans-epithelial resistance ([12]; compared with LL-37): transient and not significantly different from LL-37; activity against B. cepacia clinical isolate (Burkholderia cepacia): significantly more active than LSA-5 |
| VRRVVRRVVRVVRRVVRRVRRVVRRVVRVV RRVVRR (VRRVVRRVVRVVRRVVRRVRRVVRRVVRVVRRVVRR; Antimicrobial peptide) [LBU-3] |  | 1500 nM | 1500 nM | 1500 | 800 |  |  |
| VRRVWRRVVRVVRRWVRRVRRVWRRVVRVV RRWVRR (VRRVWRRVVRVVRRWVRRVRRVWRRVVRVVRRWVRR; Antimicrobial peptide) [WLBU-3] | 400 | 3,000 nM | 600 nM | 1500 | 800 | 100 |  |
